The values below are quoted from earlier work in patent US10875836B2, “Callyspongiolide, analogs thereof and uses thereof” (Purdue Research Foundation, priority 2016, dated 2020).

The test system of data set [1] is human Jurkat J16 T lymphocytes.
The subject of data set [2] is human Ramos B lymphocytes.
Data set [3] concerns K562 cell line.
The test system of data set [4] is A549 cell line.

`C[C@@H]1C/C=C\C(=O)O[C@H](/C=C/C#C/C=C/C(C)(C)[C@@H](O)c2cccc(O)c2Br)[C@@H](C)/C=C/[C@H](C)C[C@H](OC(N)=O)C1` [callyspongiolide]: the values for the IC50 in data set [1] and in data set [2] were 70 nM and 60 nM, respectively.
Take callyazepin: the cytotoxicity entry in data set [3] and in data set [4] was “moderate cytotoxicity” in each case.

What is called IC50 is the concentration that gives 50% inhibition.
